Laboratory results published in publication PMC7801264, “Farnesyl Transferase Inhibitor Lonafarnib Enhances α7nAChR Expression Through Inhibiting DNA Methylation of CHRNA7 and Increases α7nAChR Membrane Trafficking” (Frontiers in Pharmacology, 2020).
pEC50: −log10 of the molar value.

Target: T1, α7 nicotinic acetylcholine receptor (α7nAChR) (Mus musculus, UniProt P49582)
T1 construct: gene Chrna7; native receptor in hippocampal CA1 pyramidal cells (brain slices)
Assay: whole cell patch-clamp of ACh-evoked inward current in mouse hippocampal slices, dose-response

T1 sequence (P49582 23-502): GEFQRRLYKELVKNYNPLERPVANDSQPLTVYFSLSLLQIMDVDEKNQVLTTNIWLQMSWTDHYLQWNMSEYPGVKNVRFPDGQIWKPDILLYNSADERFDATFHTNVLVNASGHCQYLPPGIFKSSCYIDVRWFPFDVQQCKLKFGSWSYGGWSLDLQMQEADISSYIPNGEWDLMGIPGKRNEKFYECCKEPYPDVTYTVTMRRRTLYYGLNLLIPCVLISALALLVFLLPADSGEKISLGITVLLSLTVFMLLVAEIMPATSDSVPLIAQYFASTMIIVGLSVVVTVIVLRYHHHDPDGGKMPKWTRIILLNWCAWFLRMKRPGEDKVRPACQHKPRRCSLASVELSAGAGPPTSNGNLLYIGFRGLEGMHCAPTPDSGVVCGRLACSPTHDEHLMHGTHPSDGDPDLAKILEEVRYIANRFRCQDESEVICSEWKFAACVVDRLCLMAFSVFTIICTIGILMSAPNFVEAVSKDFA

CC(=O)OCC[N+](C)(C)C [acetylcholine]
pEC50: 3.37
